From patent publication US10894807B2 (Siemens Medical Solutions USA, Inc., priority 2011, dated 2021)

Target: human PSMA (Homo sapiens (Human), UniProt Q04609)
Assay: Enzymatic assay for in vitro evaluation of PSMA inhibitors (fluorescent assay of PSMA activity, NAAG substrate, OPA detection of glutamate)
Assay type: biochemical

Sequence of human PSMA (Q04609 whole entry): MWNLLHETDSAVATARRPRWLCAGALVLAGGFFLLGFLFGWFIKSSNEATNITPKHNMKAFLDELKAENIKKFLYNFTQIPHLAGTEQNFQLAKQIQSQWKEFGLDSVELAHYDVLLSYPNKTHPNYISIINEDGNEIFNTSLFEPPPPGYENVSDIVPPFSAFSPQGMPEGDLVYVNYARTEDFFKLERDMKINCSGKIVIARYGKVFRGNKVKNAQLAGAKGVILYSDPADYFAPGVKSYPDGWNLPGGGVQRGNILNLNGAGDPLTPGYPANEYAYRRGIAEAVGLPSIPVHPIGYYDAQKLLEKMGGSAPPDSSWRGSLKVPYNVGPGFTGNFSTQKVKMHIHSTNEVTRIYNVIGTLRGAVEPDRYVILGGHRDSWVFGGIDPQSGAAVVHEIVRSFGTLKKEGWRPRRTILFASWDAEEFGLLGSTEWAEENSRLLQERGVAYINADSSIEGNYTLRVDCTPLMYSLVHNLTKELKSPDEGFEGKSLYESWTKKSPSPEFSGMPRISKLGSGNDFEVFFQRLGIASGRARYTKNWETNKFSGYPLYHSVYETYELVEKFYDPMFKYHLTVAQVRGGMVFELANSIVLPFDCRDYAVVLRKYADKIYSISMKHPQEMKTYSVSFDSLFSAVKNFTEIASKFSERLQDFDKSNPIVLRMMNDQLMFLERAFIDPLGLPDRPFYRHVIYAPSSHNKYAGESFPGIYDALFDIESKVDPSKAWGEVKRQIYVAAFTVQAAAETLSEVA

SMILES | Ki [nM] | PSMA Blkg % (10 μM) [%] | PSMA Blkg % (1.0 μM) [%]
O=C(O)CC[C@H](NC(=O)N[C@@H](Cc1ccc(NC(=O)Cn2cc(CCCF)nn2)cc1)C(=O)O)C(=O)O [P217, (S)-2-(3-((S)-1-Carboxy-2-(4-(4-(4-(3-fluoropropyl)-1H-1,2,3-triazol-1-yl)-acetamido)-phenyl)ethyl)ureido)pentanedioic Acid] | 31.3 | 96 | 
O=C(O)CC[C@H](NC(=O)N[C@@H](CCCCNc1nc(-c2ccc(-n3cc(CCCF)nn3)cc2)cs1)C(=O)O)C(=O)O [P218, (S)-2-(3-((S)-1-Carboxy-5-((4-(4-(4-(3-fluoropropyl)-1H-1,2,3-triazol-1-yl)phenyl)thiazol-2-yl)amino)pentyl)ureido)pentanedioic Acid] | 0.6 | 98 | 
O=C(O)CC[C@H](NC(=O)C[C@@H](NC(=O)CCCc1ccc(-n2cc(CCCF)nn2)cc1)C(=O)O)C(=O)O [P219, (S)-2-((R)-3-Carboxy-3-(4-(4-(4-(3-fluoropropyl)-1H-1,2,3-triazol-1-yl)phenyl)butanamido)-propanamido)pentanedioic Acid] |  | 74 | 
O=C(O)CC[C@H](NC(=O)C[C@@H](NC(=O)CCc1ccc(-n2cc(CCCF)nn2)cc1)C(=O)O)C(=O)O [P220, (S)-2-((R)-3-Carboxy-3-(3-(4-(4-(3-fluoropropyl)-1H-1,2,3-triazol-1-yl)phenyl)-propanamido)-propanamido)pentanedioic Acid] |  |  | 34
O=C(O)CC[C@H](NC(=O)C[C@@H](NC(=O)c1ccc(-n2cc(CCCF)nn2)cc1)C(=O)O)C(=O)O [P221, (S)-2-((R)-3-Carboxy-3-(4-(4-(3-fluoropropyl)-1H-1,2,3-triazol-1-yl)benzamido)propanamido)-pentanedioic Acid] |  |  | 15
O=C(O)CC[C@H](NC(=O)N[C@@H](Cc1ccc(NC(=O)N2CCN(C(=O)OCc3ccccc3)CC2)cc1)C(=O)O)C(=O)O [P222] | 0.56 |  | 98
O=C(O)CC[C@H](NC(=O)N[C@@H](Cc1ccc(NC(=O)Nc2ccc(C[C@H](NC(=O)N[C@@H](CCC(=O)O)C(=O)O)C(=O)O)cc2)cc1)C(=O)O)C(=O)O [P223, (2S,2′S)-2,2′-(((((1S,1′S)-((Carbonylbis(azanediyl))bis(4,1-phenylene))bis(1-carboxyethane-2,1-diyl))bis(azanediyl))bis(carbonyl))bis(azanediyl))dipentanedioic Acid] | 1.1 |  | 98
O=C(O)CC[C@H](NC(=O)N[C@@H](COC(=O)N1CCN(C(=O)OCc2ccccc2)CC1)C(=O)O)C(=O)O [P224, (S)-2-(3-((S)-2-((4-((Benzyloxy)carbonyl)piperazine-1-carbonyl)oxy)-1-carboxyethyl)ureido)pentanedioic Acid] |  |  | 65
O=C(O)CCC(CP(=O)(O)OCCC1CCN(C(=O)CCc2ccc(-n3cc(CCCF)nn3)cc2)CC1)C(=O)O (stereo not shown) [P225, 2-(((2-(1-(3-(4-(4-(3-Fluoropropyl)-1H-1,2,3-triazol-1-yl)phenyl)propanoyl)piperidin-4-yl)ethoxy)(hydroxy)phosphoryl)methyl)pentanedioic Acid] |  |  | 7
O=C(O)CCC(CP(=O)(O)OCC1CCN(C(=O)CCCc2ccc(-n3cc(CCCF)nn3)cc2)CC1)C(=O)O (stereo not shown) [P226, 2-((((1-(4-(4-(4-(3-Fluoropropyl)-1H-1,2,3-triazol-1-yl)phenyl)butanoyl)piperidin-4-yl)methoxy)(hydroxy)phosphoryl)methyl)pentanedioic Acid] |  |  | 32
O=C(O)CCC(CP(=O)(O)OCCC1CCN(C(=O)c2ccc(-n3cc(CCCF)nn3)cc2)CC1)C(=O)O (stereo not shown) [P227, 2-(((2-(1-(4-(4-(3-Fluoropropyl)-1H-1,2,3-triazol-1-yl)benzoyl)piperidin-4-yl)ethoxy)(hydroxy)phosphoryl)methyl)pentanedioic Acid] |  |  | 15
O=C(O)CC[C@H](NC(=O)C[C@@H](NC(=O)Cn1cc(CCCF)nn1)C(=O)O)C(=O)O [P228, (S)-2-((R)-3-Carboxy-3-(2-(4-(3-fluoropropyl)-1H-1,2,3-triazol-1-yl)acetamido)propanamido)-pentanedioic Acid] |  |  | 24
O=C(O)CC[C@H](NC(=O)C[C@@H](NC(=O)N1CCN(C(=O)OCc2ccccc2)CC1)C(=O)O)C(=O)O [P229, (S)-2-((R)-3-(4-((Benzyloxy)carbonyl)piperazine-1-carboxamido)-3-carboxypropanamido)-pentanedioic Acid] |  |  | 25
O=C(O)CC[C@H](NC(=O)NC(CC1CCN(C(=O)CCCc2ccc(-n3cc(CCCF)nn3)cc2)CC1)C(=O)O)C(=O)O (stereo partly drawn) [P230, (2S)-2-(3-(1-Carboxy-2-(1-(4-(4-(4-(3-fluoropropyl)-1H-1,2,3-triazol-1-yl)phenyl)butanoyl)-piperidin-4-yl)ethyl)ureido)pentanedioic Acid] | 13 |  | 95
O=C(O)CCC(C(=O)O)N1C(=O)N[C@@H](CC2CCN(C(=O)CCCc3ccc(-n4cc(CCCF)nn4)cc3)CC2)C1=O (stereo partly shown) [P231] |  |  | 63
O=C(O)CC[C@H](NC(=O)N[C@@H](CCCCNc1nc(-c2ccc(F)cc2)cs1)C(=O)O)C(=O)O [P232, (S)-2-(3-((S)-1-Carboxy-5-(4-(4-fluorophenyl)thiazol-2-ylamino)pentyl)ureido)pentanedioic Acid] |  |  | 96
O=C(O)CC[C@H](NC(=O)N[C@@H](CCCCNc1nc(-c2cccc([N+](=O)[O-])c2)cs1)C(=O)O)C(=O)O [P233, (S)-2-(3-((S)-1-Carboxy-5-(4-(3-nitrophenyl)thiazol-2-ylamino)pentyl)ureido)pentanedioic Acid] |  |  | 96
O=C(O)CC[C@H](NC(=O)N[C@@H](CCCCNc1nc(-c2cc3ccccc3s2)cs1)C(=O)O)C(=O)O [P234, (S)-2-(3-((S)-5-(4-(Benzo[b]thiophen-2-yl)thiazol-2-ylamino)-1-carboxypentyl)ureido) pentanedioic Acid] |  |  | 86
O=C(O)CC[C@H](NC(=O)N[C@@H](CCCCNc1nc(-c2ccc3c(c2)OCO3)cs1)C(=O)O)C(=O)O [P235, (S)-2-(3-((S)-5-(4-(Benzo[d][1,3]dioxol-5-yl)thiazol-2-ylamino)-1-carboxypentyl)ureido)-pentanedioic Acid] | < 0.3 |  | 100
O=C(O)CC[C@H](NC(=O)N[C@@H](CCCCNc1nc(-c2ccnc(Cl)c2)cs1)C(=O)O)C(=O)O [P236, (S)-2-(3-((S)-1-Carboxy-5-(4-(2-chloropyridin-4-yl)thiazol-2-ylamino)pentyl)ureido)-pentanedioic Acid] |  |  | 99
O=C(O)CC[C@H](NC(=O)N[C@@H](Cc1ccc(NC(=O)N2CCN(C(=O)Cn3cc(CCCF)nn3)CC2)cc1)C(=O)O)C(=O)O [P237, (S)-2-(3-((S)-1-Carboxy-2-(4-(4-(2-(4-(3-fluoropropyl)-1H-1,2,3-triazol-1-yl)acetyl)piperazine-1-carboxamido)phenyl)ethyl)ureido)pentanedioic Acid] | 3.8 |  | 100
O=C(O)CC[C@H](NC(=O)N[C@@H](Cc1ccc(NC(=O)c2cc(C(=O)Nc3ccc(C[C@H](NC(=O)N[C@@H](CCC(=O)O)C(=O)O)C(=O)O)cc3)cc(-n3cc(CCCF)nn3)c2)cc1)C(=O)O)C(=O)O [P238, (2S,2′S)-2,2′-(((((1S,1′S)-(((5-(4-(3-Fluoropropyl)-1H-1,2,3-triazol-1-yl)isophthaloyl)bis(azanediyl))bis(4,1-phenylene))bis(1-carboxyethane-2,1-diyl))bis(azanediyl))bis(carbonyl))bis(azanediyl))dipentanedioic Acid] | < 0.3 |  | 100
O=C(O)CC[C@H](NC(=O)C[C@@H](NC(=O)CCNC(=O)OCc1ccccc1)C(=O)O)C(=O)O [P239, (9R,13S)-3,7,11-Trioxo-1-phenyl-2-oxa-4,8,12-triazapentadecane-9,13,15-tricarboxylic Acid] |  |  | 33
O=C(O)CC[C@H](NC(=O)N[C@@H](Cc1ccc(Nc2nc(-c3ccc(-n4cc(CCCF)nn4)cc3)cs2)cc1)C(=O)O)C(=O)O [P240] | 28 |  | 94
O=C(O)CC[C@H](NC(=O)N[C@@H](Cc1ccc(NC(=O)c2ccc(F)cc2)cc1)C(=O)O)C(=O)O [P241] | 0.38 |  | 94
O=C(O)CC[C@H](NC(=O)N[C@@H](CCCCNc1cc(OCc2cn(CCF)nn2)ccc1[N+](=O)[O-])C(=O)O)C(=O)O [P242, (S)-2-(3-((S)-1-Carboxy-5-((5-((1-(2-fluoroethyl)-1H-1,2,3-triazol-4-yl)methoxy)-2-nitrophenyl)amino)pentyl)ureido)pentanedioic Acid] | 0.07 |  | 99
O=C(O)CC[C@H](NC(=O)C[C@@H](NC(=O)CCNC(=O)Cn1cc(CCCF)nn1)C(=O)O)C(=O)O [P243, (S)-2-((R)-3-Carboxy-3-(3-(2-(4-(3-fluoropropyl)-1H-1,2,3-triazol-1-yl)acetamido)propanamido)-propanamido)pentanedioic Acid] |  |  | 5
O=C(O)CC[C@H](NC(=O)N[C@@H](CCCCNc1nc(-c2cccc(NC(=O)Cn3cc(CCCF)nn3)c2)cs1)C(=O)O)C(=O)O [P244, (S)-2-(3-((S)-1-Carboxy-5-(4-(3-(2-(4-(3-fluoropropyl)-1H-1,2,3-triazol-1-yl)acetamido)phenyl)thiazol-2-ylamino)pentyl)ureido)pentanedioic Acid] | 0.38 |  | 98
